Measured values as given in publication PMC9959349, “Discovery of the 3-Amino-1,2,4-triazine-Based Library as Selective PDK1 Inhibitors with Therapeutic Potential in Highly Aggressive Pancreatic Ductal Adenocarcinoma” (International Journal of Molecular Sciences, 2023).
Like-named read-outs stand apart in the source and are kept apart here.

Tests used:
[1] = test system: S232 PDH E1 alpha protein (PDHA1) phosphorylation in PSN-1 cells; assay: Cellular PDH phosphorylation (ELISA); assay type: cell-based, human; settings: 24 h, IC50 concentrations
Procedure: As a first step, the ability of representative derivatives to target PDK in intact cancer cells was assessed by evaluating their effect on PDH phosphorylation of PSN-1 cancer cells.
PSN-1 cells (2 × 10^5) were seeded in a six-well plate in growth medium (4 mL). After 24 h, cells were incubated for 24 h with IC50 concentrations of tested compounds. Subsequently, the phosphorylation level of S232 PDH E1 alpha protein (PDHA1) was assessed by ELISA Kit (Abcam) following the manufacturer’s instructions. The amount of phosphorylated S232 PDHA1 protein was detected by measuring the absorbance of each well at 600 nm, using a Bio-Rad 680 microplate reader.

[2] = test system: PSN-1 cells; assay: Cellular oxygen consumption (Mito-ID Extracellular O2 Sensor Kit); assay type: cell-based, human; settings: IC50 concentrations
Procedure: (§1) Cells were treated with DAP or representative compounds at IC50 concentrations and the changes in OCR and in the intracellular lactate formation were monitored.
PSN-1 cells (2 × 10^5) were seeded in a six-well plate in growth medium (4 mL). After 24 h, cells were incubated for 60 min with IC50 concentrations of tested compounds. Subsequently, oxygen consumption was assessed by Mito-ID® Extracellular O2 Sensor Kit according to manufacturer’s instructions. Fluorescence was measured using a Tecan microplate reader (Ex 340–400 nm, Em 630–680 nm).

[3] = target: recombinant human PDK1 (Homo sapiens, UniProt Q15118); assay: ADP-Glo kinase assay, PDK1; settings: for effect on enzymatic activity of PDK1: 1.5 µM compound, 30 min preincubation
Chain of recombinant human PDK1 (Q15118 29-436): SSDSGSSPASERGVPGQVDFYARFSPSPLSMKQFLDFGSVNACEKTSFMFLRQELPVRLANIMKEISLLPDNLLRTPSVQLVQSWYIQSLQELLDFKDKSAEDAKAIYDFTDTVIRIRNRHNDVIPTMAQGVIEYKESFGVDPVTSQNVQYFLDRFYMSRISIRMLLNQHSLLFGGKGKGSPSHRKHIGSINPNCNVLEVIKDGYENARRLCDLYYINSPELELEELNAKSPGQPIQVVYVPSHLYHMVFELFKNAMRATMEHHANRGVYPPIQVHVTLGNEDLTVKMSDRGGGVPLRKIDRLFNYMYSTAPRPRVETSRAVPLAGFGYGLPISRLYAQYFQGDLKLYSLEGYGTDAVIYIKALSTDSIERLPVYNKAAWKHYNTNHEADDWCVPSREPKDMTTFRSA
Procedure: (§4) The ability of tested compounds to inhibit the activity of PDK 1–4 isoforms was primarily assessed in cell-free experiments by a chemioluminescent assay, the ADPGlo™ Kinase Assay kit from Promega (Promega Corporation, Madison, WI, USA).
(§5) The in vitro inhibitory activity of tested compounds on recombinant human PDK1-4 isoforms (Abcam, Cambridge, MA, USA) was evaluated by using the ADPGlo™ Kinase Assay kit from Promega (Promega Corporation, Madison, WI, USA) following the instructions of the manufacturer. […] The reaction was then started by the addition of substrate/ATP for 60 min at room temperature. Subsequently, ADP-Glo™ reagent was added and incubated for 40 min prior to kinase detection reagent addition. After 30 min, the luminescence was measured with a Tecan plate reader (Tecan Infinite® M200). Raw data were normalized to the values of control wells and luminescence values for each drug dose were expressed as a percentage of the luminescence of control untreated wells. […] The evaluation was based on means from at least three independent experiments.

[4] = test system: PSN-1 cells; assay: Cellular lactate production; assay type: cell-based, human; settings: IC50 concentrations
Procedure: as §1
PSN-1 cells (2 × 10^5) were seeded in a six-well plate in a growth medium (4 mL). After 24 h, cells were incubated for 60 min with IC50 concentrations of tested compounds. Changes in lactate production were assessed via colorimetric microplate assay (Lactate assay kit®, Merk, St. Louis, MO, USA) according to the manufacturer’s instructions. The intracellular lactate concentration was detected by measuring the absorbance of each well at 570 nm, using a Bio-Rad 680 microplate reader.

[5] = test system: PSN-1 cells; assay: Mitochondrial membrane potential (Mito-ID kit); assay type: cell-based, human; settings: IC50 concentrations
Procedure: The ΔΨ was assayed using the Mito-ID® Membrane Potential Kit according to the manufacturer’s instructions (Enzo Life Sciences, Farmingdale, NY, USA) as previously described. Briefly, PSN-1 cells (8 × 10^3 per well) were seeded in 96-well plates; after 24 h, cells were washed with PBS and loaded with Mito-ID Detection Reagent for 30 min at 37 °C in the dark. Afterward, cells were incubated with tested compounds for 60 min. CCCP (Carbonyl cyanide 3-chlorophenyl-hydrazone) was used as the positive control. Fluorescence intensity was estimated using a VICTOR X3 (PerkinElmer, Waltham, MA, USA) plate reader at 490 (excitation) and 590 nm (emission).

[6] = test system: PSN-1 cells; assay: 3D spheroid cytotoxicity, acid phosphatase (APH) assay, PSN-1; settings: read-out: IC50 ±S.D. PSN-1 (3D cytotoxicity); spheroids, 72 h, APH test
Procedure: (§6) The PDAC cancer spheroids were treated with tested compounds for 72 h, and cell viability was assessed by means of the acid phosphatase (APH) assay (Table 3).
(§7) An APH-modified assay was used for determining cell viability in 3D spheroids, as previously described [61]. Briefly, the pre-seeded spheroids were treated with fresh medium containing the compound to be studied at the appropriate concentration (range 2.5–200 μM). Triplicate cultures were established for each treatment. After 72 h, each well was treated with 100 μL of the assay buffer (0.1 M sodium acetate, 0.1% Triton-X-100, supplemented with ImmunoPure p-nitrophenyl phosphate; Sigma Chemical Co., Ltd.) and, following 3 h of incubation, 10 μL of 1 M NaOH solution was added. […] The mean absorbance for each drug dose was expressed as a percentage of the control untreated well absorbance (T/C) and plotted vs. drug concentration. […] The evaluation was based on means from at least four independent experiments.

[7] = test system: BxPC-3 cells; assay: 3D spheroid cytotoxicity, acid phosphatase (APH) assay, BxPC-3; settings: read-out: IC50 ±S.D. BxPC-3 (3D cytotoxicity); spheroids, 72 h, APH test
Procedure: as §6, §7

[8] = target: recombinant human HSP90 (Homo sapiens, UniProt P07900); assay: HSP90 inhibition assay (Transcreener ADP kit); assay type: biochemical; settings: for decrease of HSP90 catalytic activity: 1.5 µM compound (equivalent doses)
Procedure: The in vitro inhibitory activity of tested compounds on recombinant human HSP90 was assessed by The Transcreener™ ADP kit (Bellbrook Labs) according to the manufacturer’s protocol. Human recombinant HSP90 protein was incubated with tested compounds in the presence of 250 μM ATP at 37 °C for 30 min, 4°C for 30 min and ATPase activity was stopped via the addition of the stop and detect buffer. Following this, samples were incubated for 1 h at room temperature with the ADP2 Antibody and the ADP Alexa594 Tracer. The fluorescence intensity polarization of samples was measured with a Tecan plate reader (Tecan Infinite® M200). The evaluation was based on means from at least three independent experiments.

[9] = test system: PSN-1 cells; assay: ROS production (CM-H2DCFDA); assay type: cell-based, human; settings: 5 µM test compounds, antimycin 3 µM as positive control
Procedure: Consistently, tested compounds, although to different extents, were effective in reducing total cellular sulfhydryl contents in PSN-1-treated cells (Figure 9B).
The production of ROS was measured in PSN-1 cells (10^4 per well) grown for 24 h in a 96-well plate in RPMI medium without phenol red (Sigma Aldrich, Germany). Cells were then washed with PBS and loaded with 10 μM 5-(and-6)-chloromethyl-2′,7′-dichlorodihydrofluorescein diacetate acetylester (CM–H2DCFDA) (Molecular Probes-Invitrogen, Eugene, OR, USA) for 45 min, in the dark. Afterward, cells were washed with PBS and incubated with tested compounds. Fluorescence increase was estimated utilizing the wavelengths of 485 nm (excitation) and 527 nm (emission) in a VICTOR X3 (PerkinElmer, USA) plate reader. Antimycin (3 μM, Sigma Aldrich), a potent inhibitor of Complex III in the electron transport chain, was used as the positive control.

[10] = test system: PSN-1 cells; assay: Cell death induction, Hoechst 33258 staining; assay type: cell-based, human; settings: 48 h, IC50 doses
Procedure: As a last mechanistic evaluation, the ability of selected compounds 5i and 6h to induce cancer cell death by means of apoptosis, was also assessed.
PSN-1 cells were seeded into 8-well tissue-culture slides (BD Falcon, Bedford, MA, USA) at 5 × 10^4 cells/well (0.8 cm^2). […] Samples were examined at 5× and 40× magnification in a Zeiss LSM 800 confocal microscope using the Zeiss ZEN 2.3 software system (Zeiss, Oberkochen, Germany).

[11] = test system: caspase-3 and -8 in PSN-1 cells; assay: Caspase-3 and -8 activity; assay type: cell-based, human; settings: 24 h, IC50 doses
Procedure: Apoptotic cell death can be triggered by a mitochondria-mediated or mitochondrial-independent pathways. In the […], caspase-8 and caspase-3 play an essential role. […] Staurosporine (STS), an alkaloid inducing apoptosis through caspase-3 and -8 activation was used as a positive control. […] Caspase-3 and -8 cleavage reached values similar to that induced by the well-known caspase-dependent apoptosis inducer staurosporine (Figure 10C).
Protein aliquots (100 μg) were stained at 37 °C for 60 min with fluorescent caspase-3 (N-acetyl-Asp-Glu-Val-Asp-AMC, AMC = 7-amino-4-methylcoumarin) or caspase-8 (Ac-Val-Glu-Thr-Asp-AMC) substrates. Substrate hydrolysis was measured after 60 min by monitoring the release of AMC using a a Tecan microplate reader (excitation at 370 nm, emission at 460 nm).

[12] = test system: PSN-1 cells; assay: TEM analysis of mitochondria; assay type: cell-based, human; settings: 24 h, IC50 concentrations
Procedure: In addition, TEM analyses were performed on PSN-1 cancer cells after 24 h treatment with IC50 concentrations of the representative compounds 5i and 6h.
About 10^6 PSN-1 cancer cells were seeded in 24-well plates and, after 24 h incubation, were treated with IC50 concentrations of tested compounds and incubated for an additional 24 h. Cells were then washed with cold PBS, harvested, and directly fixed with 1.5% glutaraldehyde buffer with 0.2 M sodium cacodylate, pH 7.4. After washing with buffer and postfixation with 1% OsO4 in 0.2 M cacodylate buffer, specimens were dehydrated and embedded in epoxy resin (Epon Araldite). Sagittal serial sections (1 μm) were counterstained with toluidine blue; thin sections (90 nm) were given contrast by staining with uranyl acetate and lead citrate. Micrographs were taken with a Hitachi H-600 electron microscope (Hitachi, Tokyo, Japan) operating at 75 kV. All photos were typeset in Corel Draw 11.

[13] = target: recombinant human PDK4 (Homo sapiens, UniProt Q16654); assay: ADP-Glo kinase assay, PDK4; settings: 1.5 µM compound
Chain of recombinant human PDK4 (Q16654 whole entry): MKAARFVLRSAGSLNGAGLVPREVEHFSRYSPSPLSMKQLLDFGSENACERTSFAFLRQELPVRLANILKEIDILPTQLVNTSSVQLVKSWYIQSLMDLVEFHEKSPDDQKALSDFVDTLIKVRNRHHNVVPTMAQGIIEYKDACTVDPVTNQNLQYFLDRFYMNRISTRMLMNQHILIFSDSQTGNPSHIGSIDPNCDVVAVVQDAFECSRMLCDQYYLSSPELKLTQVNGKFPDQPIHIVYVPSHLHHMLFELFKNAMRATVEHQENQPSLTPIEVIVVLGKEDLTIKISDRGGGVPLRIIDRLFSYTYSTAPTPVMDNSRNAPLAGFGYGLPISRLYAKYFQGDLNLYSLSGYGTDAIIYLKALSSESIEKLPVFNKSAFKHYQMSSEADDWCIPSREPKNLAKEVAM
Procedure: as §4, §5

[14] = test system: BxPC-3 cells; assay: 2D cytotoxicity, MTT assay, BxPC-3; assay type: cell-based; settings: Homo sapiens, BXPC-3, 72 h, 72 h, MTT test, KRAS-wild-type BxPC-3; read-out: IC50 ±S.D. BxPC-3 (2D cytotoxicity)
Procedure: (§2) All newly synthesized compounds were then screened for their cytotoxic activity against two human PDAC cell lines, namely a KRAS-wild-type PDAC cell line (BxPC-3 cells) and a KRAS-mutant PDAC cell line (PSN-1 cells). […] The cytotoxicity parameters, expressed in terms of IC50 and obtained after 72 h of drug exposure by MTT assay, are listed in the Supplementary Materials (Table S2).
(§3) The growth inhibitory effect on tumor cells was evaluated by means of the MTT assay. Briefly, 3–8 × 10^3 cells/well, dependent upon the growth characteristics of the cell line, were seeded in 96-well microplates in growth medium (100 μL). After 24 h, the medium was removed and replaced with a fresh one containing the compound to be studied at the appropriate concentration. Triplicate cultures were established for each treatment. After 72 h, each well was treated with 10 μL of a 5 mg/mL MTT saline solution, and following 5 h of incubation, 100 μL of a sodium dodecyl sulfate (SDS) solution in HCl 0.01 M was added. After overnight incubation, cell growth inhibition was detected by measuring the absorbance of each well at 570 nm using a Bio-Rad 680 microplate reader. The mean absorbance for each drug dose was expressed as a percentage of the control untreated well absorbance and plotted vs. drug concentration. IC50 values, the drug concentrations that reduce the mean absorbance at 570 nm to 50% of those in the untreated control wells, were calculated by the four-parameter logistic (4-PL) model. The evaluation was based on means from at least four independent experiments.

[15] = test system: PSN-1 cells; assay: 2D cytotoxicity, MTT assay, PSN-1; assay type: cell-based; settings: Homo sapiens, PSN1, 72 h, 72 h, MTT test, KRAS-mutant PSN-1; read-out: IC50 ±S.D. PSN-1 (2D cytotoxicity)
Procedure: as §2, §3

IC50 [3] [µM] | effect on enzymatic activity of PDK1 [3] | melting point [°C] | decrease of HSP90 catalytic activity [8] | IC50 [8] [µM] | effect on HSP90 enzyme activity ([8]; 1.5 µM compound) | effect on PDK4 activity (ATP consumption) [13] | IC50 ([3]; read-out: IC50 ±S.D. PDK1, four-parameter logistic model, three independent experiments) [µM] | Compound | reduction in phospho-PDHA1 (S232) levels [1] | cellular oxygen consumption (OCR) [2] | lactate production [4] | percentage of cells with hypopolarized mitochondrial membrane potential (in words) [5] | IC50 [6] [µM] | IC50 [7] [µM] | ROS basal level production / hydrogen peroxide formation [9] | apoptosis induction (nuclear morphology) [10] | caspase-3 and -8 activation [11] | mitochondrial morphology (TEM) [12] | IC50 [14] [µM] | IC50 [15] [µM]
0.01 ± 0.003 | totally suppressed | 239.5 | 60–80% |  |  |  |  | COc1ccc2c(c1)c(-c1nc(N)nnc1-c1cn(C)c3ccc(F)cc13)cn2C [5k] | very similar to that exerted by the reference PDK inhibitor DAP | more effective than DAP | more potent than DAP | significantly increased | 15.9 ± 2.3 | 67.9 ± 3.7 | even higher than that provoked by antimycin |  |  |  |  | 
0.08 ± 0.01 | totally suppressed |  |  | 0.2 | completely abolish the enzyme activity |  |  | COc1ccc2c(c1)c(-c1nnc(N)nc1-c1cn(C)c3ccccc13)cn2C [6h] |  |  |  | significantly increased | 24.3 ± 1.4 | 33.4 ± 3.6 | increase in the ROS basal level production | brightly stained nuclei and morphological features typical of cells undergoing apoptosis | significantly activated | dramatic swelling of the mitochondria |  | 
 | totally suppressed | 266 | 60–80% |  |  | completely blocked | 0.07 ± 0.02 | Cn1cc(-c2nnc(N)nc2-c2cn(C)c3ccccc23)c2cc(Br)ccc21 [6j] | very similar to that exerted by the reference PDK inhibitor DAP |  |  | significantly increased | 18.1 ± 2.3 | 41.2 ± 3.6 | even higher than that provoked by antimycin |  |  |  | 0.2 ± 0.04 | 0.6 ± 0.1
